Where two headings read alike, the source gives them in different places.

In data set [1] the test system is human PMNLs. The data set can be described thus: Lactate dehydrogenase release (LDH assay) in PMNL. The data set is classed as cell-based. On the procedure: After treatment of PMNL, supernatants were centrifuged (600g × 5 min, 4 °C), and 100 μL of supernatant were mixed with 200 μL LDH reaction buffer (75 mM Tris/HCl, pH 7.4, 0.3 mM NADH, 1.5 mM Na-pyruvate) in a 96-well plate. The decrease of NADH was measured immediately by absorbance at 340 nm in a kinetic mode (every 7 s for 20 min; Multiskan Spectrum). As a positive control for maximal LDH release, cells treated with 1 % Triton X-100 were included in each experiment, while untreated cells and vehicle (DMSO) served as negative controls.

The target of data set [2] is T1, 5-LO (Homo sapiens, UniProt P09917).
T1 sequence (P09917 1-674): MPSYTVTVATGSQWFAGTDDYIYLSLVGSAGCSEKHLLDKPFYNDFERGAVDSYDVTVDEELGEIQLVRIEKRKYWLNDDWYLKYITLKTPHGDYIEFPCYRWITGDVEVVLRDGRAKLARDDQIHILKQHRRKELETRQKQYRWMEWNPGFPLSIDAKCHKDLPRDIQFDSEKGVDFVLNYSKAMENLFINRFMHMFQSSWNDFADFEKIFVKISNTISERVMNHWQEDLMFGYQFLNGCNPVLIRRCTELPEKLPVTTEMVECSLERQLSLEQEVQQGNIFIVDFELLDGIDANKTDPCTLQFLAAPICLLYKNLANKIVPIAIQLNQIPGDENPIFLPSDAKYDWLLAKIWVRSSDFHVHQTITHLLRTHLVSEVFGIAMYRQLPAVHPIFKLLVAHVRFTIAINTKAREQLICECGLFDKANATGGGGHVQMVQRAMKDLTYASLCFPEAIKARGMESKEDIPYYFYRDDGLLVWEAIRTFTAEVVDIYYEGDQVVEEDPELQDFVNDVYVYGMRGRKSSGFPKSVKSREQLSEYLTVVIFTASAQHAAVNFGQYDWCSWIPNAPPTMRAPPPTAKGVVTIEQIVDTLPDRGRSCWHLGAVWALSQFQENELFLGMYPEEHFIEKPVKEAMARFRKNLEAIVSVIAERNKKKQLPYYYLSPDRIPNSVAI
The data set can be described thus: cell-free 5-LO activity assay with purified human recombinant 5-LO. The data set is classed as biochemical. Details: made in house. The following applies: for IC50: purified human recombinant 5-LO, 20 μM AA, read-out: Cell-free (IC50 of 5-LO activity); for 5-LO inhibition in the cell free assay: up to 10 μM. On the procedure: 5-LO was expressed in E. coli B121 (DE3) transformed with pT3- 5LO plasmid, and purification of 5-LO was performed as described previously. Briefly, E. coli was lysed in 50 mM tri-ethanolamine/HCl, pH 8.0, 5 mM EDTA, […] soybean trypsin inhibitor, 1 mM phenylmethanesulfonyl fluoride, 1 mM dithiothreitol and 1 mg/mL lysozyme and then sonified (3 × 15 s). The homogenate was then centrifuged at 40,000g for 20 min at 4°C. 5-LO in the supernatant was partially purified by affinity chromatography on an ATP-agarose column (Sigma-Aldrich). Semi-purified 5-LO was diluted in PBS containing EDTA (1 mM) and ATP (1 mM) and immediately used for 5-LO activity assays. Samples were pre-incubated with the test compounds or vehicle (0.1 % DMSO) for 10 min at 4°C. Samples were pre-warmed for 30 s at 37°C, and 2 mM CaCl2 plus the indicated concentrations of AA were added to start 5-LO product formation. The reaction was stopped after 10 min by addition of one volume of ice-cold methanol, and the formed metabolites were analyzed by HPLC. 5- LO products include the all-trans isomers of LTB4 as well as 5-HPETE and its corresponding alcohol 5-HETE.

The target in data set [3] is T1, 5-LO. The data set can be described thus: 5-LO product formation in intact human PMNL (neutrophils). The data set is classed as cell-based. Details: endogenous in cells; host or cells: human PMNL from peripheral blood of healthy volunteers. The following applies: intact human PMNL. On the procedure: PMNL and monocytes were isolated from human peripheral blood of adult healthy volunteers, with consent, obtained from the Institute of Transfusion Medi-cine, University Hospital Jena (Germany). PMNL were immediately isolated by dextran sedi-mentation, centrifugation on Nycoprep cushions, and hypotonic lysis of erythrocytes, as described. PMNL viability was analyzed by trypan blue exclusion with a Vi-cell counter (Beckmann Coulter GmbH, Krefeld). HEK-293 cells were grown in DMEM/High Glucose (4.5 g/L) medium supplemented with heat-inactivated fetal calf serum (FCS, 10 %, vv_1), 100 U/mLpenicillin, and 100 µg/mL streptomycin at 37 °C in a 5 % CO2 incubator. HEK-293 cells were stably transfected with 5-LO and FLAP as validated experimental cell-based model for studying the regulation of 5-LO [28]. None of the cell lines used in this study were authenticated.
Freshly isolated human PMNL (5 × 10^6) were resuspended in 1 mL PBS buffer containing 1 mg/mL glucose (PG buffer). […] After 10 min at 37 °C, the reaction was stopped with 1 mL of methanol for 10 min on ice and LO products formed and released in the supernatants were extracted and analyzed by HPLC. In detail, after centrifugation (800g, 10 min, room temperature) the samples were applied to C-18 solid-phase extraction columns (100 mg; IST, Mid Glamorgan, United Kingdom), preconditioned with 1 mL methanol and 1 mL water. The columns were washed with 1 mL water and 1 mL water/methanol (75/25, vol/vol) and 5-LO metabolites were eluted with 300 μL methanol. The extract was then diluted with 120 μL water, and 100 μL diluted extract were analyzed by HPLC using a C-18 Radial-Pak column (Waters) eluted with methanol/water/acetic acid 75/25/0.1 (vol/vol/vol) at a flow rate of 1.2 mL/min. Amounts of different metabolites were determined by peak area integration. 5-LO products analyzed include LTB4 and its two all-trans isomers, 5(S)-hydroxy-6-trans-8,11,14-cis-eicosatetraenoic acid (5-HETE), and 5(S)-hydroper-oxy-6-trans-8,11,14-cis-eicosatetraenoic acid (5-HpETE). 5-HETE and 5-HpETE coelute as one major peak, and the integration of this peak represented both eicosanoids.

For data set [4], the target named is T2, 12-LO (Homo sapiens, UniProt P18054).
T2 construct: endogenous in cells; host or cells: human PMNL preparations
T2 sequence (P18054 1-663): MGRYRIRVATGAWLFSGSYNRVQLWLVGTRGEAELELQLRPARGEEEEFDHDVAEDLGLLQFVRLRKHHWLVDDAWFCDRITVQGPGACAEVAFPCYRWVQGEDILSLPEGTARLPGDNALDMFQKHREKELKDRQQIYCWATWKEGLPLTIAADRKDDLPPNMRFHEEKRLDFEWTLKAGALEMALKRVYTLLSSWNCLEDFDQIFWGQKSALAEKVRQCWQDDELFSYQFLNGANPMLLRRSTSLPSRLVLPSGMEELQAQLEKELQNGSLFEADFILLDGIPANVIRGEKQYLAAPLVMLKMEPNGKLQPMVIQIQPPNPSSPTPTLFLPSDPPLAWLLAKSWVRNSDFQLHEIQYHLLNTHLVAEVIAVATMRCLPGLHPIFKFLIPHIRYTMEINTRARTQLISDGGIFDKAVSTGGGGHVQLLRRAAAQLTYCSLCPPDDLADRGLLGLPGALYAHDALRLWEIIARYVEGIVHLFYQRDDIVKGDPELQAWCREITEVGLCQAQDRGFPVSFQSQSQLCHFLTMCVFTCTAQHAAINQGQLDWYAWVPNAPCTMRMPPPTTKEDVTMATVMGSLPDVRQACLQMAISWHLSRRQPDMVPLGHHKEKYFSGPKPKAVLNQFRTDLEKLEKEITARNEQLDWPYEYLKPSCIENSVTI
The data set can be described thus: 12-LO product formation in intact human PMNL. The data set is classed as cell-based. As to conditions: for IC50: PMNL, 2.5 μM A23187 plus 20 μM AA, read-out: LTC4; for effect on 12-LO activity: at 10 μM.

In data set [5] the target is 5-lipoxygenase (5-LO). Details: method as in PMID 31523435. The following applies: read-out: IC50 in isolated human neutrophils; cited from earlier work.
Data set [6] addresses 5-lipoxygenase (5-LO). Details: method as in PMID 31523435. As to conditions: read-out: IC50 in whole blood; cited from earlier work.
In data set [7] the test system is 5-LO. Details: method as in PMID 23871907. The following applies: cited from earlier work.
Data set [8] concerns mPGES-1. Details: method as in PMID 23871907. The following applies: cited from earlier work.
The mark [9] stands for this setting: […] A23187 plus 20 μM AA, 10 min, read-out: Cell-based A23187 + AA (IC50 of 5-LO product formation).

Turning to `CCCC/C=C\CCCCCCCCCc1cccc(OC(C)=O)c1OC(C)=O` [AI, (Z)-1,2-diacetoxy-3-(pentadec-10′-enyl)-benzene], the “cytotoxicity on PMNL (LDH levels in the supernatants)” value in data set [1] is “comparable to those of untreated controls”. Further, the IC50 in data set [2] is > 10000 nM; in data set [3] ([…] A23187, 10 min, read-out: Cell-based A23187 (IC50 of 5-LO product formation)), > 10000 nM; in data set [3] (setting [9]), 1500 ± 1400 nM; in data set [4], > 10000 nM. Further, the “5-LO inhibition in the cell free assay” value in data set [2] is “No significant 5-LO inhibition”. For the same compound, the “effect on 12-LO activity” value in data set [4] is on record as “no significant effect”.
As for `CCCCCCCCCCCCCCCc1cccc(OC(C)=O)c1OC(C)=O` [AS, 1,2-diacetoxy-3-pentadecylbenzene], the “cytotoxicity on PMNL (LDH levels in the supernatants)” value in data set [1] is recorded as “comparable to those of untreated controls”. In addition, the IC50 in data set [2], in data set [3] (setting [9]) and in data set [4] was > 10000 nM in each case. The “5-LO inhibition in the cell free assay” value in data set [2] is “No significant 5-LO inhibition”. The “effect on 12-LO activity” value in data set [4] is recorded as “no significant effect”.
In the case of `O=C(/C=C/c1ccc(O)c(O)c1)OCCc1ccccc1` [CAPE, Caffeic acid phenethyl ester], the results for the IC50 in data set [5] and in data set [6] were 500 nM and 1800 nM, respectively.
As for `CCCCCCCCCCCC1=C(O)C(=O)C=C(O)C1=O` [embelin], the IC50 is 60 nM in data set [7] and 200 nM in data set [8].

The record behind these values is PMC12523804, “Evaluation of molecular mechanisms of (Z)-3-(pentadec-10′-enyl)-catechol (litreol) and synthetic derivatives as inhibitors of human leukotriene biosynthesis” (Redox Biology, 2025).
